Results as given in patent publication US20150045301A1, “METHODS AND USES OF ANP (ATRIAL NATRIURETIC PEPTIDE), BNP (BRAIN NATRIURETIC PEPTIDE) AND CNP (C-TYPE NATRIURETIC PEPTIDE)-RELATED PEPTIDES AND DERIVATIVES THEREOF FOR TREATMENT OF RETINAL DISORDERS AND DISEASES” (KALOS Therapeutics, Inc., priority 2011, published 2015).
Where “and” joins values, the source holds several entries; their conditions need not be identical. Equal entries are not always repeated. Entries after “also recorded” stand apart in the source; their conditions may differ.

Experiments:
[1] = tested on: Human RPE cells (ARPE-19); assay: Transepithelial electrical resistance (TEER) of RPE cell layer treated with VEGF; format: cell-based; settings: ARPE-19 cell layer
[2] = tested on: cancer cells; assay: Anti-cancer activity of peptides with the conserved motif (cell proliferative assay); format: cell-based; settings: statement in the description
From the text: This example describes activity of peptides having a conserved motif and conserved amino acids predicted to be functional in the motif. (Table III). This example also describes additional exemplary peptide sequences having a conserved motif predicted to have activity (Table IV). Notations “Res 1, Res 2” etc., herein refer by single letter abbreviation the amino acid in the exemplary peptide 8-mer. “Activity” can be determined by a cell proliferative assay, such as an assay described herein or known to one of skill in the art. Of course, peptides exemplified in Table IV can include the conserved motif peptide as part of a larger protein. The SEQ ID NO is the same as the peptide number. Each of these exemplary peptides can be analyzed in vitro, ex vivo, and in vivo for anti-cell proliferative activity using an assay, such as a cell based in vitro assay described in Examples 1 or 4.

[3] = tested on: cancer cells; settings: comparison between natriuretic peptides, Vesely 2008; cited from earlier work
[4] = molecular target: T1, NPRC (Homo sapiens, UniProt P17342); settings: comparison between natriuretic peptides, Vesely 2008; cited from earlier work
T1 sequence (P17342 27-541): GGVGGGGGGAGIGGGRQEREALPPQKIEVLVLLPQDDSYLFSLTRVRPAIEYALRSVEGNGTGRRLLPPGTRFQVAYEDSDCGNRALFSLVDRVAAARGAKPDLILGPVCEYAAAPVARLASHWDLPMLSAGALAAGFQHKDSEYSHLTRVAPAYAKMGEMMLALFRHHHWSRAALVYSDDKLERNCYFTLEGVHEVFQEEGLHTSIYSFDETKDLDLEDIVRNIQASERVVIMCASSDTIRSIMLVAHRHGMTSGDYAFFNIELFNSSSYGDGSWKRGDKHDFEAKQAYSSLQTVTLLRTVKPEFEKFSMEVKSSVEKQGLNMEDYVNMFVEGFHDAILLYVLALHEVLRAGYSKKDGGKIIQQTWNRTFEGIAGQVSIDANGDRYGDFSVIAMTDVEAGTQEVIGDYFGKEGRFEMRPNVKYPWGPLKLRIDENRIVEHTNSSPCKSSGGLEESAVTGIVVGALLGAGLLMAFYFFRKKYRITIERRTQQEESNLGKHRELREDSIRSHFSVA

[5] = tested on: Human Pancreatic Adenocarcinoma Cells (HPAC); assay: HPAC cell viability / anti-cell proliferative assay (Calbiochem Rapid Cell Proliferation Kit, OD 450 nm); format: cell-based; settings: 48 hours; for Optical Densities in 96_Well Plate, Average: average of 5 wells; for Optical Densities in 96_Well Plate, single well: one of 5 replicate wells
Protocol: Human Pancreatic Adenocarcinoma Cells (HPAC) cells were obtained from ATCC and propagated in Dulbecco's modified Eagle's medium and Ham's F12 medium (DME-F12) (1:1) containing 2.5 mM glutamine, […], 5 ug/mL transferrin, 1 ng/mL EGF (epidermal growth factor), plus 5% FBS (fetal bovine serum). Cell cultures were incubated at 37° C., 5% CO2 in a 100% humidity atmosphere. The cells were routinely brought to confluence in T-flasks, rinsed with phosphate buffered saline(PBS), and treated with trypsin for 5 min at room temp. The trypsinized cells were rinsed from the plate with 10 mL medium and counted. Viability at subculturing was generally ≧95%.
Approximately 10,000 cells in 100 uL of medium were placed in each well of a 96-well plate and incubated over night. Peptides having the following sequences were used: Arg-15-Cys (RSSCAGAALSPLGAC); Pro-15-Val (PNEEAGAALSPLPEV); Ala-8-Leu (AGALSPL); C-ANP 4-23 ([…]) and, VDL ([…]). The peptides were dissolved in PBS and sterile filtered. The peptides were diluted into the cell culture medium to the following final concentrations: 1, 0.3, 0.1, 0.03, and 0.01 uM. Each peptide was tested in 5 replicate wells. The cultures were incubated for an additional 48 hours at 37° C.
The viability of the cells was determined using a Calbiochem Rapid Cell Proliferation Kit (catalog number QIA127). Ten uL of Calbiochem color reagent was added to each well and incubated for an additional 1.5 hours at 37° C. Optical densities were read at 450 nm using a Molecular Devices ThermoMax microplate reader. The plate template is shown in Table I (unlabeled wells contained cells but no peptide and were used as blanks). Results are presented in Table I, and are graphically illustrated in FIGS. 1 and 2.

[6] = molecular target: T2, NPRA (Homo sapiens, UniProt P16066); settings: comparison between natriuretic peptides, Vesely 2008; cited from earlier work
T2 sequence (P16066 33-1061): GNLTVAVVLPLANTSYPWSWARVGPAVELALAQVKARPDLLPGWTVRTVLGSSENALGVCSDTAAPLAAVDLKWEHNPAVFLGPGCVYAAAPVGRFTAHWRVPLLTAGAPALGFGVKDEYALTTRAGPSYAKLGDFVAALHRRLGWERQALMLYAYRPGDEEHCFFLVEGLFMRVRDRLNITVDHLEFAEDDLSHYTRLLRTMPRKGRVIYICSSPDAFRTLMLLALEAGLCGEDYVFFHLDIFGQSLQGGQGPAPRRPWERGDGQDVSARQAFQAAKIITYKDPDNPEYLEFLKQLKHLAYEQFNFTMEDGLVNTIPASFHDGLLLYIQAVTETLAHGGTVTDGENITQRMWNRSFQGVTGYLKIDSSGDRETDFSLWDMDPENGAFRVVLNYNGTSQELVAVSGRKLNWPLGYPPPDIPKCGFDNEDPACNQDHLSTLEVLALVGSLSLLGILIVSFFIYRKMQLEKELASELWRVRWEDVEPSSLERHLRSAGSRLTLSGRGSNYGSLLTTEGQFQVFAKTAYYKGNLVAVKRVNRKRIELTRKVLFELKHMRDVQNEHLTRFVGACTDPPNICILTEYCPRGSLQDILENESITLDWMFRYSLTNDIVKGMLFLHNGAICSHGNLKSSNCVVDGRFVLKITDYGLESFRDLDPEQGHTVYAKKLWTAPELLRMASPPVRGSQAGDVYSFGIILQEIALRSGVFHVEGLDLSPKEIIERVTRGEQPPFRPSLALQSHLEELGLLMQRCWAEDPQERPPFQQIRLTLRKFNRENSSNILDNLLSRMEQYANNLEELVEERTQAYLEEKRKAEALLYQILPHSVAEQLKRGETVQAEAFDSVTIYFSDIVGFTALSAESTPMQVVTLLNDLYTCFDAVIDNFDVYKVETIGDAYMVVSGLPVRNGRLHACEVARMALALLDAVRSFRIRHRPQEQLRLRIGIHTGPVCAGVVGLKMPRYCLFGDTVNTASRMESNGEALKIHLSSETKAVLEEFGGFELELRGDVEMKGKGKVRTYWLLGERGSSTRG

Substance | Effect on transepithelial electrical resistance (TEER) ([1]; VEGF 10 ng/ml) | Activity of peptides sharing the conserved motif [2] | Relative potency of NPs [3] | Relative binding affinity at NPRC [4] | Optical Densities in 96_Well Plate, Average ([5]; peptide 0.01 μM) | Optical Densities in 96_Well Plate, single well ([5]; peptide 0.01 μM) | Optical Densities in 96_Well Plate, Average ([5]; peptide 0.03 μM) | Optical Densities in 96_Well Plate, single well ([5]; peptide 0.03 μM) | Optical Densities in 96_Well Plate, Average ([5]; peptide 0.1 μM) | Optical Densities in 96_Well Plate, single well ([5]; peptide 0.1 μM) | Optical Densities in 96_Well Plate, Average ([5]; peptide 0.3 μM) | Optical Densities in 96_Well Plate, single well ([5]; peptide 0.3 μM) | Optical Densities in 96_Well Plate, Average ([5]; peptide 1.0 μM) | Optical Densities in 96_Well Plate, single well ([5]; peptide 1.0 μM) | Effect on VEGF-induced decrease in trans-epithelial electrical resistance (TEER) ([1]; concurrent treatment with VEGF 10 ng/ml, ANP luM) | Relative binding affinity at NPRA [6]
VEGF | lowered resistance |  |  |  |  |  |  |  |  |  |  |  |  |  |  | 
KP: ANP-related peptide; motif in Table III LKSKLRAL (SSDRSALLKSKLRALLTAPR; Kaliuretic peptide; UniProt P01160 104-123, looked up) |  | have activity |  |  |  |  |  |  |  |  |  |  |  |  |  | 
CNP: C-type natriuretic peptide; motif in Table III FGLKLDRI |  | have activity; also recorded: less active than ANP, LANP, KP or VDL | greater potency of CNP than BNP | higher binding affinity than BNP specifically at NPRC |  |  |  |  |  |  |  |  |  |  |  | 
RSSCFGGRIDRIGAC [C-ANP 4-23, the ANP analog, reference compound] |  | have activity |  |  | 0.938 | 0.877 and 0.971 and 0.953 and 0.932 and 0.958 | 0.932 | 0.905 and 0.882 and 0.981 and 0.948 and 0.943 | 0.942 | 0.758 and 1.027 and 0.983 and 0.960 and 0.982 | 0.942 | 0.840 and 0.928 and 1.035 and 0.975 and 0.932 | 0.925 | 0.865 and 0.925 and 0.900 and 0.955 and 0.981 |  | 
PNEEAGAALSPLPEV [Pro-15-Val] |  |  |  |  | 0.916 | 0.907 and 0.905 and 0.633 and 1.209 and 0.928 | 0.894 | 0.892 and 0.765 and 0.693 and 1.151 and 0.970 | 0.918 | 0.680 and 0.895 and 0.893 and 1.156 and 0.964 | 0.916 | 0.875 and 0.817 and 0.855 and 1.024 and 1.010 | 0.948 | 0.856 and 0.752 and 0.802 and 1.083 and 1.248 |  | 
BNP: brain natriuretic peptide; motif in Table III FGKRMDRI |  | have activity |  |  |  |  |  |  |  |  |  |  |  |  |  | 
AGALSPL [Ala-8-Leu, 8-mer conserved motif peptide] |  |  |  |  | 0.937 | 0.744 and 0.878 and 1.000 and 0.892 and 1.169 | 0.976 | 0.892 and 0.937 and 0.989 and 0.921 and 1.139 | 0.991 | 0.832 and 1.006 and 1.031 and 0.910 and 1.174 | 1.002 | 0.784 and 0.802 and 0.998 and 1.357 and 1.070 | 0.985 | 0.732 and 1.216 and 0.954 and 0.834 and 1.189 |  | 
RSSCAGAALSPLGAC [Arg-15-Cys] |  |  |  |  | 0.934 | 0.974 and 0.920 and 0.863 and 0.840 and 1.075 | 0.982 | 1.093 and 0.894 and 0.789 and 0.955 and 1.178 | 0.950 | 1.016 and 0.917 and 0.801 and 0.990 and 1.025 | 0.897 | 0.988 and 0.957 and 0.668 and 0.913 and 0.959 | 0.962 | 1.155 and 1.005 and 0.787 and 0.944 and 0.919 |  | 
EVVPPQVLSEPNEEAGAALSPLPEVPPWTGEVSPAQR [KT-220 (VDL), vessel dilator VDL] |  | have activity |  |  |  |  |  |  |  |  |  |  |  |  |  | 
LANP: ANP-related peptide; motif in Table III FKNLLDHL (NPMYNAVSNADLMDFKNLLDHLEEKMPLED; Long-acting natriuretic peptide; UniProt P01160 26-55, looked up) |  | have activity |  |  |  |  |  |  |  |  |  |  |  |  |  | 
ANP: atrial natriuretic peptide; Table III sequence SLRRSSCFGGRMDRIGAQSGLGCNSFRY [reference compound] |  | have activity | greater potency observed for ANP than CNP | higher binding affinities at NPRA and NPRC | 0.908 | 0.981 and 0.815 and 0.822 and 0.965 and 0.955 | 0.935 | 0.948 and 0.882 and 0.911 and 0.951 and 0.982 | 0.838 | 0.884 and 0.889 and 0.907 and 0.862 and 0.650 | 0.974 | 1.001 and 0.889 and 0.837 and 0.934 and 1.209 | 0.914 | 1.018 and 0.819 and 0.954 and 0.829 and 0.951 | attenuated the effect of VEGF; also recorded: This decrease is attenuated by ANP | higher binding affinities at NPRA and NPRC
